Source: article PMC6696198, “Thyroid Peroxidase Activity is Inhibited by Phenolic Compounds—Impact of Interaction” (Molecules, 2019)
Where “and” joins values, the source holds several entries; their conditions need not be identical. Identical values can stand only once. Entries after “also recorded” stand apart in the source; their conditions may differ. Like-named read-outs stand apart in the source and are kept apart here. Values belong to the molecule of their own block, whether it stands above or below them.

Legend:
TPO [1] = tested on: TPO; parameters: method as in PMID 25822105; conditions: according to literature data ref 22; read-out: IC50 of TPO inhibition (positive controls); cited from earlier work
[2] = ABTS radical scavenging (in vitro antioxidant capacity) assay; conditions: n = 9
Description: The ABTS radical scavenging activity was determined according to Re et al. with some modifications. 250 µL of ABTS solution was mixed with 10 µL of each pure polyphenols solutions (concentration 50 µg/mL) and measured at the wavelength 724 nm using a UV/Vis spectrophotometer (BioTek, Model Epoch2TC, Winooski, Vermont, VT, USA) after 15 min of incubation in room temperature. The inhibition percentage of ABTS discoloration was calculated using the following equation: AA=Ac−Ap/Ac×100% Where Ac—the absorbance of control, Ap—the absorbance of pure polyphenols solutions.

thyroid peroxidase (TPO) [3] = molecular target: T1, thyroid peroxidase (TPO) (Sus scrofa, UniProt P09933); assay: TPO inhibitory assay (guaiacol oxidation); assay type: biochemical, porcine; conditions: for Mode of Inhibition: Lineweaver-Burk plot, with respect to guaiacol; for Vmax: TPO in presence of inhibitor; for Vmax / Ki / IC50: n = 9; for IC50: porcine thyroid TPO, guaiacol assay, read-out: IC50 of TPO inhibition
T1 construct: The frozen thyroid gland was cut into slices and homogenized in a buffer containing 0.25 M sucrose; from tissue; host or cells: porcine thyroid gland (homogenate, centrifuged, salted-out to 60%)
T1 sequence (P09933 15-926): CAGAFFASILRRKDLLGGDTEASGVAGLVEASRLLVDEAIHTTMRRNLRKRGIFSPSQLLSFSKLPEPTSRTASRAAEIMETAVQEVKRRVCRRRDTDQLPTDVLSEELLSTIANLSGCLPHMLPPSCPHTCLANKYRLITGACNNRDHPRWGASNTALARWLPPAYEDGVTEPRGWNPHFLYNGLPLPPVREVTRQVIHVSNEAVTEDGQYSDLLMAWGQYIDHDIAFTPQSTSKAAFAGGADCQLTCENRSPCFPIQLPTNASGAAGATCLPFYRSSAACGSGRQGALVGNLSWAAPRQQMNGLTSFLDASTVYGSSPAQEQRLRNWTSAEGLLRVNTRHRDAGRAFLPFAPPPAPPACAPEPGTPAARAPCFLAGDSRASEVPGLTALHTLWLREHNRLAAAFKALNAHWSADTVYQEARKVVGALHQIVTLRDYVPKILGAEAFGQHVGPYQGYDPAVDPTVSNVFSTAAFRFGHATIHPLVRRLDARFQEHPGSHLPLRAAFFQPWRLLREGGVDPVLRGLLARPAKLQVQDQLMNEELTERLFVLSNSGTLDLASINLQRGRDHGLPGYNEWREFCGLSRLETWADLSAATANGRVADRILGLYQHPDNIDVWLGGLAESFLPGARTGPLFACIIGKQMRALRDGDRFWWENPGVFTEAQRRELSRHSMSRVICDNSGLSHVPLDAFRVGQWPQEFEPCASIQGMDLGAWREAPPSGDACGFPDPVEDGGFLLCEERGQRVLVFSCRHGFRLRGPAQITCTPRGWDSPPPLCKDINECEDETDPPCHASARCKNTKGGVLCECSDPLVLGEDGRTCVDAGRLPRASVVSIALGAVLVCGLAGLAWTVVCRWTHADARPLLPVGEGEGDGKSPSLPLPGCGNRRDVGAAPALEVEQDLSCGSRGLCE
Description: Porcine thyroid glands were obtained at a local slaughterhouse (Lublin, Poland) and stored in −20 °C until used.
The assay was prepared according to Jomaa with some modifications. The frozen thyroid gland was cut into slices and homogenized in a buffer containing 0.25 M sucrose, 2 mM Tris—HCl, 100 mM KCl, 40 mM NaCl, 10 mM MgCl2 (pH 7.4) with a Philips homogenizer. The thyroid gland was than centrifuged two times at 4000 RPM per 15 min in temperature +4 °C. The enzyme protein was then salted-out to 60%. The supernatant was used for further analysis and was stored in a −20 °C freezer.
The activity of the enzyme was assayed using a guaiacol assay. […] The reaction components were incubated in 37 °C before the assignment. […] The assay was conducted as follows: To a cuvette, 180 µL of buffer, 100 µL of guaiacol and 40 µL of TPO were mixed to the final volume of […]. The cuvette was then placed into the spectrophotometer and the reaction was started by the addition of 100 µL H2O2. Absorbance readings were recorded every minute for a total of 3 min. Verification of the TPO activity was accomplished by linearly correlating the TPO concentration with absorbance readings.
(§1) The assay was used according to Jomaa with some modification. The measurement was made using a plate spectrophotometer (BioTek, Model Epoch2TC, Winooski, Vermont, VT, USA) in 96–well plates at a wavelength of 470 nm. The assay was conducted as follows: 50 µl of buffer, 40 µl of pure substance solution, 50 µL of guaiacol, 20 µL of TPO enzyme and 50 µL H2O2. The total volume of the mixture was 210 µL. In the sample probe, extracts were replaced by the buffer. Absorbance readings were recorded every minute for a total of 3 min in 37^o. As a unit of TPO activity is defined as the change of absorbation per minute.
TPO inhibitory activity was calculated as follows: %inhibition=(1−ΔA/mintest/ΔAminblank)×100 Where: ΔA/min test is the linear absorbance change per minute of the test material and ΔA min blank is the linear change in absorbance per minute of the blank.
The IC50 value was determined by the interpolation of dose response curves. […] The mode of inhibition of the enzyme was performed using the Lineweaver–Burk plot.

thyroid peroxidase (TPO) [4] = molecular target: T1, thyroid peroxidase (TPO); assay: Effect of pure substance combinations on TPO activity (isobolographic analysis); assay type: biochemical, porcine; parameters: key to CI (Combination Index): CI <1 = synergy, =1 = addition, >1 = antagonism; conditions: TPO inhibition; for CI (Combination Index): n = 9
Description: as §1
Results (type and strength of interactions) can be shown on the isobolograms and described by the combination Index (CI). When CI is lower than one, indicates synergy; when CI is equal to one, indicates addition; when CI is higher than one, indicates antagonism. Isobolograms were performed according to Chou. […] Pure substances were mixed in various volume ratios: 1:4, 4:1, 3:2, 2:3, 1:1. All of the mixtures were made in combinations of two substances. The inhibitory assay was made using the same proportions as with single solutions.

[5] = parameters: method as in doi:10.1039/C6RA28237G; conditions: rats, cited from earlier work
[6] = parameters: method as in PMID 25978046; conditions: Melissa officinalis extract containing 500 mg rosmarinic acid, fasted state; cited from earlier work
TPO [7] = tested on: TPO; parameters: method as in PMID 8924586; conditions: read-out: IC50 in relation to TPO; cited from earlier work
[8] = six weeks supplementation with rutin, volunteers; cited from earlier work
[9] = after meal containing 150 g fried onions (equivalent to 64 mg quercetin); cited from earlier work
[10] = mixture with Chlorogenic Acid, listed as Rosmarinic acid
[11] = mixture with Quercetin, listed as Rosmarinic acid
[12] = mixture with Chlorogenic Acid, listed as Rutin

SMILES: Cn1cc[nH]c1=S [Methimazole]
- IC50 (TPO [1]): 10.7 µM

- IC50 [2]: 151 ± 6 µM
- Mode of Inhibition (thyroid peroxidase (TPO) [3]): competitive
- Vmax (thyroid peroxidase (TPO) [3]): 175.44 ± 7.01 b ΔAU/min
- Ki (thyroid peroxidase (TPO) [3]): 1 µM
- IC50 (thyroid peroxidase (TPO) [3]): 4 ± 0.14 µM
- Type of interaction (scale according to Chou) (thyroid peroxidase (TPO) [4]; mixture with Chlorogenic Acid): moderate antagonism
- CI (Combination Index) (thyroid peroxidase (TPO) [4]; mixture with Chlorogenic Acid): 1.25
- CI (Combination Index) (thyroid peroxidase (TPO) [4]; [10]): 1.25 ± 0.05
- Type of interaction (scale according to Chou) (thyroid peroxidase (TPO) [4]; [10]): Moderate antagonism
- CI (Combination Index) (thyroid peroxidase (TPO) [4]; mixture with Quercetin): 1.45
- CI (Combination Index) (thyroid peroxidase (TPO) [4]; [11]): 1.45 ± 0.03
- Type of interaction (scale according to Chou) (thyroid peroxidase (TPO) [4]; [11]): Moderate antagonism
- Type of interaction (scale according to Chou) (thyroid peroxidase (TPO) [4]; mixture with Rutin): nearly additive
- CI (Combination Index) (thyroid peroxidase (TPO) [4]; mixture with Rutin): 1.06 ± 0.05
- Type of interaction (scale according to Chou) (thyroid peroxidase (TPO) [4]; mixture with Rutin, listed as Rosmarinic acid): Nearly additive
SMILES: O=C(/C=C/c1ccc(O)c(O)c1)O[C@H](Cc1ccc(O)c(O)c1)C(=O)O [rosmarinic acid]
- Type of interaction (scale according to Chou) (thyroid peroxidase (TPO) [4]; mixture with Quercetin): moderate antagonism; also recorded: antagonistic interaction
- absolute bioavailability ([5]; oral 25 mg/kg): 1.28%
- absolute bioavailability ([5]; oral 50 mg/kg): 0.91%
- absolute bioavailability ([5]; oral […]): 1.69%
- maximum serum concentration [6]: 162.20 nM
- time of peak serum concentration of total rosmarinic acid [6]: 1 h

SMILES: CCCc1cc(=O)[nH]c(=S)[nH]1 [Propylthiouracil]
- IC50 (TPO [1]): 4 µM

- IC50 [2]: 407 ± 14 µM
SMILES: Cc1c(C)c2c(c(C)c1O)CCC(C)(C(=O)O)O2 (centres unmarked) [Trolox, 6-hydroxy-2,5,7,8-tetramethylchroman-2-carboxylic acid, reference compound]

- Mode of Inhibition (thyroid peroxidase (TPO) [3]): noncompetitive
- Vmax (thyroid peroxidase (TPO) [3]): 149.25 ± 5.97 a * ΔAU/min
- Ki (thyroid peroxidase (TPO) [3]): 170 ± 5 µM
- IC50 (thyroid peroxidase (TPO) [3]): 1440 ± 41 µM
- Type of interaction (scale according to Chou) (thyroid peroxidase (TPO) [4]; mixture with Quercetin, listed as Chlorogenic acid): Antagonism
- Type of interaction (scale according to Chou) (thyroid peroxidase (TPO) [4]; mixture with Rutin): Slight synergism
SMILES: O=C(/C=C/c1ccc(O)c(O)c1)O[C@@H]1C[C@](O)(C(=O)O)C[C@@H](O)[C@H]1O [chlorogenic acid]
- Type of interaction (scale according to Chou) (thyroid peroxidase (TPO) [4]; mixture with Quercetin): antagonism; also recorded: antagonistic interaction
- Type of interaction (scale according to Chou) (thyroid peroxidase (TPO) [4]; mixture with Rosmarinic Acid): antagonistic interaction; also recorded: Moderate antagonism

SMILES: C[C@@H]1O[C@@H](OC[C@H]2O[C@@H](Oc3c(-c4ccc(O)c(O)c4)oc4cc(O)cc(O)c4c3=O)[C@H](O)[C@@H](O)[C@@H]2O)[C@H](O)[C@H](O)[C@H]1O [rutin]
- IC50 [2]: 292 ± 10 µM
- Mode of Inhibition (thyroid peroxidase (TPO) [3]): competitive
- Vmax (thyroid peroxidase (TPO) [3]): 149.25 ± 5.01 a ΔAU/min
- Ki (thyroid peroxidase (TPO) [3]): 130 ± 3 µM
- Type of interaction (scale according to Chou) (thyroid peroxidase (TPO) [4]; mixture with Chlorogenic Acid): slight synergism; also recorded: synergistically
- CI (Combination Index) (thyroid peroxidase (TPO) [4]; mixture with Chlorogenic Acid): 0.88
- CI (Combination Index) (thyroid peroxidase (TPO) [4]; [12]): 0.88 ± 0.02
- Type of interaction (scale according to Chou) (thyroid peroxidase (TPO) [4]; [12]): Slight synergism
- Type of interaction (scale according to Chou) (thyroid peroxidase (TPO) [4]; mixture with Quercetin): additive interaction; also recorded: nearly additive
- CI (Combination Index) (thyroid peroxidase (TPO) [4]; mixture with Quercetin): 0.096 and 0.096 ± 0.05
- Type of interaction (scale according to Chou) (thyroid peroxidase (TPO) [4]; mixture with Quercetin, listed as Rutin): additively; also recorded: Nearly additive
- Type of interaction (scale according to Chou) (thyroid peroxidase (TPO) [4]; mixture with Rosmarinic Acid): additively; also recorded: additive interaction
- Type of interaction (scale according to Chou) (thyroid peroxidase (TPO) [4]; mixture with Rosmarinic Acid, listed as Rutin): Nearly additive
- IC50 (TPO [7]): 40.6 µM
- increase in plasma isorhamnetin [8]: 10 fold
- increase in plasma kaempferol [8]: 3 fold
- increase in plasma quercetin [8]: 2.5 fold

SMILES: O=c1c(O)c(-c2ccc(O)c(O)c2)oc2cc(O)cc(O)c12 [quercetin]
- IC50 [2]: 450 µM and 447 µM
- Mode of Inhibition (thyroid peroxidase (TPO) [3]): uncompetitive
- Vmax (thyroid peroxidase (TPO) [3]): 149.25 ± 4.35 a ΔAU/min
- Type of interaction (scale according to Chou) (thyroid peroxidase (TPO) [4]; mixture with Chlorogenic Acid): Antagonism
- Type of interaction (scale according to Chou) (thyroid peroxidase (TPO) [4]; mixture with Rosmarinic Acid): Moderate antagonism
- IC50 (TPO [7]): 2.4 µM
- human plasma concentration of quercetin [9]: about 0.65 umol/l
